Laboratory results reported in patent US9833495B2, “Oral treatment of inflammatory bowel disease” (Defensin Therapeutics ApS, priority 2011, dated 2017).

Test system: DSS-induced colitis in male C57BL/6 mice
Assay: 10-Day Dextran Sodium Sulphate (DSS)-induced colitis model in the mouse
Type: in vivo
Conditions: for additional DAI score without change in body weight (only stool consistency and rectal bleeding): oral, 10-day treatment
Excerpt: 10-Day Dextran Sodium Sulphate (DSS)-Induced Colitis Model in the Mouse
The aim of the following study was to determine the anti-inflammatory activity of human beta defensin 2 in an acute (10-days) model of inflammatory bowel disease (colitis) induced by oral dextran sodium sulphate (DSS) administration in the mouse.
Study design: animals were divided into 5 experimental groups. Each group consisted of 10 males: Group A: Treated with Control vehicle (PBS) p.o. twice daily. Group B: Treated with methylprednisolone (1 mg/kg p.o. twice daily). Group C: Treated with hBD2 (0.05 mg/kg p.o. twice daily). Group D: Treated with hBD2 (0.5 mg/kg p.o. daily). Group E: Treated with hBD2 (5 mg/kg p.o. […]). Animal allocation to all experimental groups was done in a randomized manner. A maximum of 5 mice were housed in each cage (as per Directive 86/609/EEC). All animals were weighed on their arrival at the laboratory and prior to the administration of the test items.
The control vehicle and hBD2 were administered orally with the use of a sterile cannula in a dosing volume of 10 ml/kg body weith. The animals of all groups received 2 doses daily (at 9.00 h and 17.00 h) of the corresponding test item (test, reference or vehicle) for 10 consecutive days (experimental days 1-10).
Colitis was induced in mice by supplementing their drinking water with DSS 2% for 7 days. On Day 1 all mice were weighed and marked according to their experimental groups. The drinking bottle of each cage was filled with the DSS solution, making sure all bottle lids were mounted properly and that none were congested. On Day 3 any remaining solution in the bottles was emptied and refilled with fresh DSS solution. This procedure was repeated again on Day 5. On Day 8 any remaining solution was discarded and replaced with autoclaved water. Animals were sacrificed 2 days later on Day 10.
Daily clinical assessment of DSS-treated animals was carried out, with the calculation of a validated clinical Disease Activity Index (DAI) ranging from 0 to 4 according to the following parameters: stool consistency, presence or absence of rectal bleeding and weight loss:
Bodyweight loss was calculated as the percent difference between the original bodyweight (Day 1) and the actual bodyweight on each experimental day (2-10). The appearance of diarrhoea is defined as mucus/faecal material adherent to anal fur. Rectal bleeding is defined as diarrhoea containing visible blood/mucus or gross rectal bleeding. The maximum score of the DAI each day is 12.
On day 10, two hours after the last administration of control vehicle, hBD2 or prednisolone, the animals were killed by an overdose of anaesthetic. Their colons were removed and their length and weight measured after exclusion of the caecum. Two sections (proximal and distal) of colon were taken from each animal and preserved in neutral buffered formalin for subsequent histological analysis (haematoxylin and eosin staining) according to the following scoring system:
Description Score: No changes observed (0). Minimal scattered mucosal inflammatory cell infiltrates, with or without minimal epithelial hyperplasia (1). Mild scattered to diffuse inflammatory cell infiltrates, sometimes extending into the submucosa and associated with erosions, with minimal to mild epithelial hyperplasia and minimal to mild mucin depletion from goblet cells (2). Mild to moderate inflammatory cell infiltrates that were sometimes transmural, often associated with ulceration, with moderate epithelial hyperplasia and mucin depletion (3). Marked inflammatory cell infiltrates that were often transmural and associated with ulceration, with marked epithelial hyperplasia and mucin depletion (4). Marked transmural inflammation with severe ulceration and loss of intestinal glands (5). […]

[1] = 1 mg/kg p.o. twice daily (Group B), day 10

| Compound | severity of disease parameters (10-Day DSS-induced colitis model in the mouse) | Disease Activity Index (DAI) (hBD2 0.05 mg/kg p.o., Day 10, mean ± SEM, n=10, P < 0.05 vs vehicle) | body weight vs control group (high dose of test item, day 10 (P<0.05)) | additional DAI score without change in body weight (only stool consistency and rectal bleeding) | histological damage score of proximal and distal colons (orally administered, day 10) | effect on disease activity index (DAI) vs vehicle (three dose levels (0.05, 0.5, 5 mg/kg) via the oral route) | histological damage in the proximal colon (twice daily, at 3 dose levels, p.o., day 10) | histological damage in the distal colon (twice daily, intermediate and high dose levels, p.o., day 10) | histological injury induced by DSS in the distal colon [1] | histological injury induced by DSS in the proximal colon [1] | body weight (group B, from day 2 until the end of the study) | effect on disease activity index (DAI) vs vehicle (reference item, 1 mg/kg p.o. twice daily) |
| --- | --- | --- | --- | --- | --- | --- | --- | --- | --- | --- | --- | --- |
| Human beta defensin 2 (GIGDPVTCLKSGAICHPVFCPRRYKQIGTCGLPGTKCCKKP; mat_peptide; listed as Homo sapiens) [NZ39000] | significantly reduce | 8 ± 0.73 | significant increase | very significant anti-inflammatory activity | very significant reduction | significant inhibition | significant reduction | significant reduction | – | – | – | – |
| C[C@H]1C[C@@H]2[C@H]([C@@H](O)C[C@@]3(C)[C@H]2CC[C@]3(O)C(=O)COC(=O)CCC(=O)O)[C@@]2(C)C=CC(=O)C=C12 [Methylprednisolone 21-hemisuccinate, reference compound] | – | – | – | very significant anti-inflammatory activity | – | – | – | – | significantly reduced | significantly reduced | significant decrease | significant inhibition |
